From PMC9029893 (International Journal of Molecular Sciences, 2022)

Columns and labels:
[1] = test system: tissue plasminogen activator (t-PA) release from HUVEC; assay: t-PA release from HUVEC (ELISA); type: cell-based, human; conditions: 24 h, HUVEC supernatants
Procedure: The influence on tissue plasminogen activator release from HUVECs was assessed using an ELISA kit (Abcam, Cambridge, UK). HUVECs seeded at a density of 10,000 per well on 96-well plates were co-incubated with compounds 1–5 at the concentrations of 0.3 and 1.0 mM for an additional 24 h (37 °C, 5% CO2). The cell supernatants were discarded into Eppendorf tubes and preserved at −20° C until analysis. Before the tests, the samples were thawed at room temperature for 15 min, and diluted 2.5-fold with diluent in Elisa kit. The measurements of t-PA concentrations in cell supernatants were conducted according to the manufacturer’s protocol using 3,3’,5,5’-tetramethylbenzidine (TMB) as a chromogenic substrate. The concentration of t-PA in HUVEC supernatants was determined using a calibration curve (R^2 = 0.9936). The results are presented as mean ± SD, n = 6. The CV for the applied method was 7.21%.

[2] = test system: human plasma (platelet poor plasma); assay: Basic coagulation tests: PT, INR, APTT, TT; type: biochemical; conditions: for TT: thrombin 3.0 UNIH/mL
Procedure: The blood was collected into vacuum tubes stuffed with 3.2% buffered sodium citrate. Platelet poor plasma (PPP) was obtained by centrifugation at 3000× g for 10 min at room temperature using a Micro 22R centrifuge (Hettich Zentrifugen, Tuttlingen, Germany). The obtained PPP was stored in small aliquots for up to one month at –30° C. Before each experiment, PPP was restored at 37 °C for 15 min. Once thawed, the PPP was not frozen again nor used for retesting.
The effects of biguanidines (1–5) on the basic coagulation parameters (PT, INR, APTT, and TT) were carried out using a CoagChrom-3003 coagulometer (Bio-Ksel, Grudziądz, Poland), according to the routine laboratory diagnostic procedure. The studies were performed in multiplicate (n = 4–7). The control samples containing distilled water and methanol (1:1) were also included.
The results are presented as mean ± standard deviation (SD). The methods were validated, and coefficients of variability for all experiments were calculated (PT: CV = 10.25%, APTT: CV = 8.55%, TT: CV = 4.87%). The reference values for each test are as follows: PT: 9.7–14.6 s; APTT: 26.7–40.0 s; TT: 14.0–18.0 s for 3.0 UNIH/mL of thrombin.

[3] = test system: clot formation and fibrinolysis in human citrate plasma; assay: Clot formation and fibrinolysis test (CL-test); type: biochemical
Procedure: The effects of the […] on overall hemostasis potential by means of clot formation and fibrinolysis test (CL-test) were further tested based on the continuous measurement of the changes in optical transmittance over time, as described by Kostka et al. and Sikora et al.. These experiments were conducted using 470 µL of three-fold diluted human citrate plasma, 10 µL of the tested compounds, and 10 µL t-PA (final concentration in a sample 220 ng/mL). The clot formation was triggered by thrombin (10 µL, final concentration 0.5 IU/mL). The clot formation and lysis curves were determined at a wavelength of 405 nm with a spectrophotometer (Cecil CE 2021; London, UK) with circulating thermostated water (37 °C) and a Model 300 Electronic Stirrer (Rank Brothers Ltd., Cambridge, UK). The experiments were conducted in multiplicate (n = 5–7), and the results are presented as mean ± SD.
The received graphs were analyzed using dedicated software to determine the kinetic parameters of clot formation, stabilization, and fibrinolysis. The following parameters of clot formation were determined: Tt—thrombin time (s), Fmax—maximum clotting (%T), Tf—plasma clotting time (s), Fvo—initial plasma clotting velocity (%T/min), Sr—area under the clot formation curve (%Txmin). The parameters of the clot stabilization phase comprised Tc—clot stabilization time (s), Sc—area under the curve of stable clot formation (%Txmin). The parameters of fibrinolysis comprised Lmax—maximum lysis (%T), Tl—fibrinolysis time (s), Lvo—initial clot fibrinolysis velocity (%T/min), Sf—area under the fibrinolysis curve (%Txmin). Additionally, the overall potential of clot formation and fibrinolysis (CLAUC, (%Txmin)) and total time of the process of clot formation and fibrinolysis (T, (s)) were also estimated.

For `CCCCCCCCS(=O)(=O)NC(N)=NC(=N)N(C)C` [Compound 2], the “Released t-PA” value ([1]; 0.3 mM) was 1633.9 ± 263.2 pg/mL, the “Released t-PA” value ([1]; 1.0 mM) was 990.0 ± 158.5 pg/mL and the APTT ([2]; 0.006 mM) was 30.79 ± 5.87 s. It also gave an INR ([2]; 0.006 mM) of 1.07 ± 0.15, a PT ([2]; 0.006 mM) of 13.30 ± 1.81 s and a TT ([2]; 0.006 mM) of 14.14 ± 0.59 s. The APTT ([2]; 0.06 mM) was 31.33 ± 5.53 s, the INR ([2]; 0.06 mM) was 1.03 ± 0.10 and the PT ([2]; 0.06 mM) was 12.82 ± 1.33 s. It also gave a TT ([2]; 0.06 mM) of 13.86 ± 0.80 s, an APTT ([2]; 0.3 mM) of 33.49 ± 4.85 s and an INR ([2]; 0.3 mM) of 1.05 ± 0.11. For the same compound, the PT ([2]; 0.3 mM) was 13.10 ± 1.37 s, the TT ([2]; 0.3 mM) was 13.48 ± 2.10 s and the APTT ([2]; 0.6 mM) was 33.46 ± 5.59 s. The INR ([2]; 0.6 mM) was 1.04 ± 0.11, the PT ([2]; 0.6 mM) was 12.96 ± 1.42 s and the TT ([2]; 0.6 mM) was 14.40 ± 2.35 s. It also gave an APTT ([2]; 1.5 mM) of 34.83 ± 6.22 s, an INR ([2]; 1.5 mM) of 1.06 ± 0.10 and a PT ([2]; 1.5 mM) of 13.20 ± 1.23 s. The TT ([2]; 1.5 mM) was 16.32 ± 2.21 s, the “Fmax—maximum clotting” value ([3]; 0.06 mM) was 66.77 ± 5.68 %T and the “Fvo—initial plasma clotting velocity” value ([3]; 0.06 mM) was 203.43 ± 22.00 %T/min. For the same compound, the “Lmax—maximum lysis” value ([3]; 0.06 mM) was 67.40 ± 5.38 %T, the “Lvo—initial clot fibrinolysis velocity” value ([3]; 0.06 mM) was 22.29 ± 4.30 %T/min and the “Sc—area under the curve of a stable clot formation” value (shortened to “Sc—area under the curve”) ([3]; 0.06 mM) was 323.20 ± 94.05 %T x min. The “Sf—area under the clot formation curve” value ([3]; 0.06 mM) was 44.40 ± 9.07 %T x min, the “Sl (area under the fibrinolysis curve)” value ([3]; 0.06 mM) was 148.45 ± 47.41 %T x min and the “S—overall potential of clot formation and fibrinolysis (CLAUC)” value (shortened to “S—overall potential”) ([3]; 0.06 mM) was 516.05 ± 146.55 %T x min. For the same compound, the “Tc—clot stabilization time” value ([3]; 0.06 mM) was 296.57 ± 72.31 s, the “Tf—plasma clotting time” value ([3]; 0.06 mM) was 56.56 ± 8.57 s and the “Tl—fibrinolysis time” value ([3]; 0.06 mM) was 240.14 ± 65.11 s. For the same compound, the “Tt—thrombin time” value ([3]; 0.06 mM) was 16.86 ± 4.24 s, the “T—total time of the process of clot formation and fibrinolysis” value (shortened to “T—total time”) ([3]; 0.06 mM) was 610.13 ± 145.50 s and the “Fmax—maximum clotting” value ([3]; 0.3 mM) was 68.99 ± 5.55 %T. For the same compound, the “Fvo—initial plasma clotting velocity” value ([3]; 0.3 mM) was 194.00 ± 48.64 %T/min, the “Lmax—maximum lysis” value ([3]; 0.3 mM) was 69.49 ± 5.34 %T and the “Lvo—initial clot fibrinolysis velocity” value ([3]; 0.3 mM) was 19.83 ± 6.57 %T/min. For the same compound, the “Sc—area under the curve” value ([3]; 0.3 mM) was 344.01 ± 74.34 %T x min, the “Sf—area under the clot formation curve” value ([3]; 0.3 mM) was 46.00 ± 9.83 %T x min and the “Sl (area under the fibrinolysis curve)” value ([3]; 0.3 mM) was 153.63 ± 43.80 %T x min. The “S—overall potential” value ([3]; 0.3 mM) was 543.64 ± 122.37 %T x min, the “Tc—clot stabilization time” value ([3]; 0.3 mM) was 309.14 ± 68.74 s and the “Tf—plasma clotting time” value ([3]; 0.3 mM) was 59.24 ± 16.26 s. For the same compound, the “Tl—fibrinolysis time” value ([3]; 0.3 mM) was 252.00 ± 73.00 s, the “Tt—thrombin time” value ([3]; 0.3 mM) was 17.54 ± 5.79 s and the “T—total time” value ([3]; 0.3 mM) was 637.93 ± 155.22 s. For the same compound, the “Fmax—maximum clotting” value ([3]; 0.6 mM) was 67.40 ± 9.57 %T, the “Fvo—initial plasma clotting velocity” value ([3]; 0.6 mM) was 214.14 ± 50.85 %T/min and the “Lmax—maximum lysis” value ([3]; 0.6 mM) was 68.19 ± 9.82 %T. The “Lvo—initial clot fibrinolysis velocity” value ([3]; 0.6 mM) was 20.37 ± 7.03 %T/min, the “Sc—area under the curve” value ([3]; 0.6 mM) was 344.82 ± 65.62 %T x min and the “Sf—area under the clot formation curve” value ([3]; 0.6 mM) was 44.34 ± 10.50 %T x min. The “Sl (area under the fibrinolysis curve)” value ([3]; 0.6 mM) was 143.77 ± 40.07 %T x min, the “S—overall potential” value ([3]; 0.6 mM) was 532.93 ± 111.10 %T x min and the “Tc—clot stabilization time” value ([3]; 0.6 mM) was 319.00 ± 63.63 s. The “Tf—plasma clotting time” value ([3]; 0.6 mM) was 55.80 ± 11.60 s, the “Tl—fibrinolysis time” value ([3]; 0.6 mM) was 247.43 ± 74.21 s and the “Tt—thrombin time” value ([3]; 0.6 mM) was 17.57 ± 3.74 s. The “T—total time” value ([3]; 0.6 mM) was 639.80 ± 148.09 s, the “Fmax—maximum clotting” value ([3]; 1.5 mM) was 61.57 ± 7.24 %T and the “Fvo—initial plasma clotting velocity” value ([3]; 1.5 mM) was 177.43 ± 34.91 %T/min. The “Lmax—maximum lysis” value ([3]; 1.5 mM) was 62.14 ± 6.63 %T, the “Lvo—initial clot fibrinolysis velocity” value ([3]; 1.5 mM) was 20.07 ± 6.59 %T/min and the “Sc—area under the curve” value ([3]; 1.5 mM) was 346.35 ± 92.32 %T x min. For the same compound, the “Sf—area under the clot formation curve” value ([3]; 1.5 mM) was 44.31 ± 12.08 %T x min, the “Sl (area under the fibrinolysis curve)” value ([3]; 1.5 mM) was 133.78 ± 47.19 %T x min and the “S—overall potential” value ([3]; 1.5 mM) was 524.43 ± 146.77 %T x min. The “Tc—clot stabilization time” value ([3]; 1.5 mM) was 351.43 ± 96.53 s, the “Tf—plasma clotting time” value ([3]; 1.5 mM) was 61.21 ± 14.65 s and the “Tl—fibrinolysis time” value ([3]; 1.5 mM) was 249.14 ± 80.94 s. The “Tt—thrombin time” value ([3]; 1.5 mM) was 24.37 ± 7.41 s and the “T—total time” value ([3]; 1.5 mM) was 686.16 ± 190.86 s.
